Experimental data as given in patent publication US20030100109A1, “Methods and compositions for in vitro germination and propagation of polygonatum cirrhifolium royle” (priority 2001, published 2003).
Values joined by “and” are separate entries in the source; they are usually repeats but may differ in a detail not shown here. Equal entries are not always repeated.

Tested on: Polygonatum cirrhifolium Royle seeds
Experiment: Induction of germination (hypocotyl emergence) on modified MS medium with GA3 at 30° C. in dark
Format: in vivo
Conditions: modified MS culture medium; for Percent germination: mean ± S.E.
Method: Ripe purplish berries from plants grown in the wild were collected and dehydrated for 15 days at room temperature (29° C.±2° C.). Seeds were collected from dehydrated berries and washed in tap water with 1-2 drops of Tween-20™ for 2 hours and rinsed three times in distilled water. Seeds were then surface sterilized with 0.1% mercuric chloride (HgCl2) for 3 minutes. Mercuric chloride was removed by washing seeds four times in sterile distilled water. Sterilized, rinsed seeds were placed on semi-solid culture medium in sterile disposable plastic Petri plates (10 cm×2 cm). Macro and micro nutrients in the basal medium were that of Murashige and Skoog's (Murashige, T. and Skoog, F. […]. Physiol Plant 15: 433 -497) but modified to contain 2.2 g/L NH4NO3, 2.0 g/L KNO3, 0.44 g/l CaCl2.2H2O, 0.37 g/L MgSO4.7H20, 0.17 g/L KH2PO4, 37.25 mg/L Na2 EDTA, 27.8 mg/L FeSO4.7H20, 0.83 mg/L KI, 6.2 mg/L H3BO3, 22.3 mg/L MnSO4.4H20, 8.6 mg/L ZnSO4.7H20, 0.25 mg/L Na2 MoO4.2H20, 0.025 mg/L CuSO4.5H2O, 0.025 mg/L CoCl2.6H20. This medium was supplemented with 250 mg/L myo-inosital, 0.5 mgl/l nicotinic acid, 0.5 mg/L pyridoxine HCl, 3 mg/L thiamine HCl, 2 mg/L glycine, 30 g/L sucrose, 7.5 g/L agar and 2, 10, 25, and 50 mg/L gibberellic acid. The pH of the medium was adjusted to 5.8 before adding agar. Medium was sterilized at 121° C. (15 lb. psi pressure) for 20 minutes. […] Seeds with emerged hypocotyl were transferred under aseptic conditions to the above defined basal culture medium containing gibberellic acid at 5, 25, 50 and 100 mg/L. Transferred plants were incubated in an environment having 8-16-hr days under about 2000 lux of light and about 8-16-hr nights in total darkness at a constant temperature of 20° C. ([…]) and at 50-60% RH. Illumination was provided by 40-watt cool, white fluorescent tubes. Germination synchronization as indicated by differentiated epicotyl with emergent coleoptile and radicle was recorded on daily basis. Tables 1 and 2 show the induction of germination as indicated by the emergence of hypocotyl at temperature of 30° C. (±2° C.; dark; RH 50-60%) and diurnal temperature of 30/20° C. (±2° C.; dark; RH 50-60%). Experiment consisted of 4 treatments in the form of varying levels of GA3 (2, 10, 25 and 50 mg/L) supplemented to culture medium consisting of 2.2 g/L NH4NO3, 2.0 g/L KNO3, 0.44 g/l CaCl2.2H2O, 0.37 g/L MgSO4.7H20, 0.17 g/L KH2PO4, 37.25 mg/L Na2 EDTA, 27.8 mg/L FeSO4.7H20, 0.83 mg/L KI, 6.2 mg/L H3BO3, 22.3 mg/L MnSO4.4H20, 8.6 mg/L ZnSO4.7H20, 0.25 mg/L Na2 MoO4.2H20, 0.025 mg/L CuSO4.5H2O, 0.025 mg/L CoCl2.6H20, 250 mg/L myo-inositol, 0.5 mg/L nicotinic acid, 0.5 mg/L pyridoxine HCl, 3 mg/L thiamine HCl, 2 mg/L glycine, 30 g/L sucrose and 7.5 g/L agar. Each treatment consisted of 15 replicates with 5 seeds in each. These were incubated at a constant temperature of 30° C. under continuous darkness at a RH of 60%. With the increase in GA3 concentration, there is concomitant increase in germination (Table 1). Maximum germination of 98.53% was obtained at 25 mg/L of GA3. Germination extended from 24-61 days (maximum duration) at 2 mg/L of GA3 and 7-23 days (minimum duration) at 50 mg/L of GA3 respectively.

SMILES: C=C1C[C@]23C[C@@]1(O)CC[C@H]2[C@@]12C=C[C@H](O)[C@@](C)(C(=O)O1)[C@H]2[C@@H]3C(=O)O [GA3, gibberellic acid]
- Duration of germination (GA3 2 mg/L): 24 to 61 days
- Percent germination (GA3 2 mg/L): 23.69 ± 7.04 %
- Duration of germination (GA3 10 mg/L): 19 to 53 days
- Percent germination (GA3 10 mg/L): 66.18 ± 4.77%
- Duration of germination (GA3 25 mg/L): 11 to 30 days
- Percent germination (GA3 25 mg/L): 98.53% and 98.53 ± 3.82%
- Duration of germination (GA3 50 mg/L): 7 to 23 days
- Percent germination (GA3 50 mg/L): 97.11 ± 4.01%
